The text below walks through data of patent publication US20120009222A1, “MODULATION OF THE IMMUNE RESPONSE” (priority 2008, published 2012).

For one data set, the system named is influenza virus. Put plainly: Inhibition of influenza viral replication in mouse lung (plaque forming assay). Set-up: species or system mice. The note with it: in vivo, iv, 2 mg/kg.
For a further data set, the system named is serum IFN-alpha. Put plainly: Systemic Type 1 interferon response: serum IFN-alpha by ELISA. The note with it: siRNA in lyophilized ND(5)-98-1 nanoparticles, 2 mg/kg IV twice.
In another data set the target is T1, TLR7 (Homo sapiens, UniProt Q9NYK1).
T1 construct: host or cells: human PBMCs (endogenous receptor)
T1 sequence (Q9NYK1 27-1049): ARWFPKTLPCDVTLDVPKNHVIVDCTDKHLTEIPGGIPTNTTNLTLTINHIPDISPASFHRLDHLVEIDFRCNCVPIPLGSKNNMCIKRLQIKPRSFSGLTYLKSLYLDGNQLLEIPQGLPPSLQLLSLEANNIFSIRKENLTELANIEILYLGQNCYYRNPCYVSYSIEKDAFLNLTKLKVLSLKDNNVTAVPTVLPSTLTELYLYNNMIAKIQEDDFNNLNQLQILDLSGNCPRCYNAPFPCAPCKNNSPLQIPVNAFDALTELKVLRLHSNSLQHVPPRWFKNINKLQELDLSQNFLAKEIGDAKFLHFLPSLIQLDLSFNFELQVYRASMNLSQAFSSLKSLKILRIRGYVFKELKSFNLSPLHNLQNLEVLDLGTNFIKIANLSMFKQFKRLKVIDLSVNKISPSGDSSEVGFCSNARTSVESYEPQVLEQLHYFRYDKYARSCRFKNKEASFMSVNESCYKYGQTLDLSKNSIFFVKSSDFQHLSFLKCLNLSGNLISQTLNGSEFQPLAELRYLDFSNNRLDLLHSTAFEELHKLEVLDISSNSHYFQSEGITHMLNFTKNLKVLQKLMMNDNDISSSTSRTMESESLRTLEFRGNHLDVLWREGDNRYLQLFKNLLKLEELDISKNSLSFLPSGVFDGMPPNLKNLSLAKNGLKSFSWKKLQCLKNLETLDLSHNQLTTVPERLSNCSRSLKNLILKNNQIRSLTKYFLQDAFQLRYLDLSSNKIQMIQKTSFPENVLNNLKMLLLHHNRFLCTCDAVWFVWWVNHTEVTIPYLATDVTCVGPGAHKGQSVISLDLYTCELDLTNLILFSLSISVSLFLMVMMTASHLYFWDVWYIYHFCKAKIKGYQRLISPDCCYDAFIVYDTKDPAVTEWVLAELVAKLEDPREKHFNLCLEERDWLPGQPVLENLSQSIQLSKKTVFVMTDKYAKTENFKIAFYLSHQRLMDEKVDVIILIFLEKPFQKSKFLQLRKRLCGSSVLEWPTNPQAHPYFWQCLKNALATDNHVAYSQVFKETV
The settings on record: cited from earlier work.

The next data set addresses T2, TLR8 (Homo sapiens, UniProt Q9NR97).
T2 construct: a strong ligand for both TLR7 and TLR8 in vitro in human PBMCs tranfected with DOTAP; host or cells: human PBMCs (endogenous receptor)
T2 sequence (Q9NR97 27-1041): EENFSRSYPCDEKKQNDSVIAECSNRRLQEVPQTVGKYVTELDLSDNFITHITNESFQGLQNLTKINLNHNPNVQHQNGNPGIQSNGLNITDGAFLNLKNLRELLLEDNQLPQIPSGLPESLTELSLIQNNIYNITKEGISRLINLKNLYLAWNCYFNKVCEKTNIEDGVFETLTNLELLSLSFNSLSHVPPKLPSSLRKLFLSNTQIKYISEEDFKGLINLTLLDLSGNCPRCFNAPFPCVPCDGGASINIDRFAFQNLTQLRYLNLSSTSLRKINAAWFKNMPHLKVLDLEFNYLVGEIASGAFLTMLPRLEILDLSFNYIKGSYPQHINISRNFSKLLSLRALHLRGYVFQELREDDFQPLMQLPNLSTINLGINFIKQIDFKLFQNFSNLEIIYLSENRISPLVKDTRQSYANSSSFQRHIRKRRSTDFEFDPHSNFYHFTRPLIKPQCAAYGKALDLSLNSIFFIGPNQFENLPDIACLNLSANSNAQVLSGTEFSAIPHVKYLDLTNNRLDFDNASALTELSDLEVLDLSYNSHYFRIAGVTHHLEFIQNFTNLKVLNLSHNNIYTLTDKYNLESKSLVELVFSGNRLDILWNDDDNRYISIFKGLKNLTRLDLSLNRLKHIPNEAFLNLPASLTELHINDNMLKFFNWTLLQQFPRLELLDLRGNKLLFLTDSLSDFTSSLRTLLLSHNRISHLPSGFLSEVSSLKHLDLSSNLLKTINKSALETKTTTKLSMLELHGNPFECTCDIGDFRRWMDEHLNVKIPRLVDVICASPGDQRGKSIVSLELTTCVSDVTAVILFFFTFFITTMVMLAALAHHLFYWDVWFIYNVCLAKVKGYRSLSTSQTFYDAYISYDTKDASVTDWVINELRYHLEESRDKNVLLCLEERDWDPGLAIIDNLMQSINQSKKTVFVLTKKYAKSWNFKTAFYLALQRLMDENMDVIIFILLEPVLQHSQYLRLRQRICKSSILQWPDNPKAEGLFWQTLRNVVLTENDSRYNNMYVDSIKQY
The note with it: cited from earlier work.

Method for serum IFN-alpha: Mice were injected IV twice with lyophilized ND(5)-98-1 (ND98)-siRNA nanoparticles at 2 mg/kg siRNA prior to (a) infection with 12,000 PFU, or (b) blood collection by cardiac puncture. […] (b) Serum IFN-alpha concentration was determined by ELISA.

Regarding “5′-CUACACAAAUCAGCGAUUUUU-3′ [siBgal-728]”, the “viral titer versus nanoparticles formulated with siGFP-949” value in the data set on influenza virus is listed as “significant reductions”. In addition, the “serum IFN-alpha” value in the data set on serum IFN-alpha is on record as “high levels”.
On to “5′-GCCACCGAGCCGAAGGCACC-3′ (all phosphorothioate, sugars by position and methylation of C not given here; lipidoid formulation) [R1263]”, for which, in the data set with TLR7, the TLR7 agonist activity entry is “low”. Moreover, the TLR8 agonist activity entry with TLR8 is recorded as “low”.
For 5′-GGAUCUUAUUUCUUCGGAGUU-3′ [siNP-1496], the “viral titer versus nanoparticles formulated with siGFP-949” value with influenza virus was “significant reductions”. In addition, in the data set on serum IFN-alpha, the “serum IFN-alpha” value was “high levels”.
On to “5′-UUGUUGUUGUUGUUGUUGUU-3′ (all phosphorothioate, sugars by position not given here; lipidoid formulation) [R1362]”, for which the TLR7 agonist activity result in the data set with TLR7 is “highly active”. The TLR8 agonist activity result with TLR8 is listed as “highly active”.
